Measured values taken from patent publication US20230321135A1, “TARGETING OF LACTATE DEHYDROGENASE C, METHODS OF PREPARING SAME, AND METHODS OF USING SAME IN COMBINATION WITH ANTI-CANCER TREATMENTS” (QATAR FOUNDATION FOR EDUCATION, SCIENCE AND COMMUNITY …, priority 2020, published 2023).

Key:
[1] = tested on: shLDHC breast cancer cells (MDA-MB-468, BT-549, MDA-MB-231, HCC-1500); experiment: Clonogenic assay at 14 days of culture post-treatment (72 h) with olaparib or cisplatin; format: cell-based; conditions: cell-line dependent
[2] = tested on: MDA-MB-468 cells; experiment: Phospho-γ-H2AX immunofluorescence after olaparib or cisplatin treatment; format: cell-based; conditions: similar levels in shCTRL and shLDHC treated cells
Text: (§1) FIG. 6A: Annexin V/PI flow cytometric quantification of apoptosis after 72 hrs of treatment with olaparib or cisplatin. FIG. 6B depicts a western blot of cleaved caspase 3 protein expression with β-actin as loading control. Numbers under each lane represent mean densitometry values (arbitrary units) for cleaved caspase 3 signal (high exposure blot) from three independent experiments normalized to β-actin. FIG. 6C: Representative immunofluorescence microscopy images of phospho-γ-H2AX (red) and DAPI-stained nuclei (100× magnification). Yellow arrows indicate early apoptotic cells and white arrows indicate late apoptotic cells. […] All statistical analysis comparing shCTRL vs shLDHC performed using Student's t-test.
(§2) DNA damage repair inhibitors and DNA damage inducing agents, including the Poly ADP-ribose polymerase (PARP)-inhibitor olaparib and cisplatin, are widely used anti-cancer drugs with particular benefit to patients with defects in DDR pathways such as BRCA1/2-positive or ‘BRCAness’ basal breast cancer patients.

[3] = tested on: MDA-MB-468 cells; experiment: Western blot of cleaved caspase 3 after olaparib or cisplatin treatment; format: cell-based; conditions: MDA-MB-468, after treatment
Text: as §1, §2

[4] = tested on: shLDHC breast cancer cells (MDA-MB-468, BT-549, HCC-1500); experiment: Annexin V/PI apoptosis after 72 hrs of treatment with olaparib or cisplatin; format: cell-based
Text: as §1
Supplemental FIG. 5A depicts a representative Annexin V/PI flow cytometry plots of MDA-MB-468 cells after 72 hrs of treatment with olaparib or cisplatin. Supplemental FIG. 5B depicts Annexin V/PI flow cytometric quantification of BT-549 cells after 72 hrs of treatment with olaparib or cisplatin. Supplemental FIG. 5C: Annexin V/PI flow cytometric quantification of HCC-1500 cells after 72 hrs of treatment with olaparib or cisplatin. […] Statistical analysis comparing shCTRL vs shLDHC performed using Student's t-test. […]

[5] = tested on: HCC-1500 cells; experiment: Sensitivity to olaparib or cisplatin (72 h treatment; Annexin V/PI, clonogenic assay); format: cell-based; conditions: 14 days of culture post-treatment (72 h)
[6] = tested on: LDHC; conditions: cited from earlier work

| SMILES | colony formation ability of shLDHC cells further compromised, compared to shCTRL treated cells [1] | DNA damage after treatment [2] | expression of cleaved caspase 3 in shLDHC cells [3] | apoptosis in giant shLDHC cells compared to shCTRL cells [4] | clonogenic ability of shCTRL and shLDHC cells [5] | selectivity towards LDHC ([6]; vs other lactate dehydrogenase enzymes (LDHA, LDHB)) | affinity for LDHC [6] |
| --- | --- | --- | --- | --- | --- | --- | --- |
| O=C(c1cc(Cc2n[nH]c(=O)c3ccccc23)ccc1F)N1CCN(C(=O)C2CC2)CC1 [olaparib] | about 2 fold | significant increase | augmented | further induced |  |  |  |
| N.N.[Cl][Pt][Cl] [cisplatin] | greater than 4 fold | significant increase | augmented | further induced | completely abolished |  |  |
| CCCNC(=O)C(=O)O [N-propyl oxamate] |  |  |  |  |  | high degree of selectivity |  |
| CCNC(=O)C(=O)O [N-Ethyl oxamate] |  |  |  |  |  |  | high affinity |
